Laboratory results as given in ChEMBL document CHEMBL1155891, “Synthesis and antiviral evaluation of some new pyrazole and fused pyrazolopyrimidine derivatives” (Bioorg Med Chem, 2008).
Activity calls are given as the source filed them. No cut-off for these calls is given here.

Experiments:
Human alphaherpesvirus 1 [1] = test: Antiviral activity against HSV1 20 ug/10^5 cells by plaque infectivity assay; type: functional, organism-based
Human alphaherpesvirus 1 [2] = test: Antiviral activity against HSV1 10 ug/10^5 cells by plaque infectivity assay; type: functional, organism-based
Hepatovirus A [3] = test: Antiviral activity against HAV 10 ug/10^5 cells by plaque infectivity assay; type: functional, organism-based
Hepatovirus A [4] = test: Antiviral activity against HAV 20 ug/10^5 cells by plaque infectivity assay

Structure (SMILES)	Activity (Human alphaherpesvirus 1 [1])	Activity (Human alphaherpesvirus 1 [2])	Activity (Hepatovirus A [3])	Activity (Hepatovirus A [4])
COCCSc1ncnc2c1cnn2-c1ncnc2sc3c(c12)-c1ccccc1CC3	Active	Active	–	–
N#Cc1cnn(-c2ncnc3sc4c(c23)-c2ccccc2CC4)c1NC(=S)NC(=O)c1ccccc1	Active	Active	Active	–
N#Cc1cnn(-c2ncnc3sc4c(c23)-c2ccccc2CC4)c1N	–	–	Active	Active
COC(CSc1ncnc2c1cnn2-c1ncnc2sc3c(c12)-c1ccccc1CC3)OC	–	Active	–	–
CCOC(=O)c1cnn(-c2ncnc3sc4c(c23)-c2ccccc2CC4)c1N	–	–	–	Active
